Like-named read-outs stand apart in the source and are kept apart here.
Legend:
[1] = system: H460 non-small cell lung adenocarcinoma; test: MTT in vitro cytotoxicity, H460; format: cell-based; conditions: Homo sapiens, NCI-H460, 240 h
Procedure: (§1) All were stored in the dark at 4° C. An accurately weighed amount of each compound was dissolved in DMSO and Hank's Balanced Salt Solution (Sigma) according to Table 2 below:
(§2) Further dilutions were made in complete RPMI1640 cell culture medium (RPMI1640 cell culture medium supplemented with 10% foetal bovine serum, 1 mM L-glutamine, and 2 mM sodium pyruvate (all from Sigma)).
(§3) H460 non-small cell lung adenocarcinoma, HT-29 colon adenocarcinoma and MCF-7 breast adenocarcinoma (ECACC, Salisbury, Wiltshire) were used for analysis. Cells were cultured in complete RPMI1640 cell culture medium, and maintained as monolayer cultures at 37° C. in a humidified 5% CO2 environment.
(§4) Tumour cell growth inhibition was assessed using the MTT assay with a standard 96 hour plus an extended 10 day incubation. For the 96 hour assay 1×10^4 cells were inoculated into each well of a 96-well plate and incubated overnight at 37° C. in a humidified atmosphere containing 5% CO2 to give time to adhere to the wells and form a monolayer. For the 10 day incubation, 1×102 (H460 and HT-29) and 1×103 (MCF-7) cells were inoculated. The next day, culture medium was removed from each well and replaced with cell culture media for the untreated control, or media containing compound, and the plates then incubated for a further 96 hours or 10 days. […] After 96 hours or 10 days culture medium was removed and 200 μL of 0.5 mgmL-1 MTT solution (Sigma) in complete medium added to each well. Following a further 4 hours incubation, the solution was removed from each well and 150 μL of DMSO added to solubilise the formazan crystals resulting from MTT conversion. Absorbance values for the resulting solutions were read at 550 nm on a Multiskan Ex microplate reader (Thermo Fisher, Loughborough, UK) and cell survival calculated as the absorbance of treated cells divided by the control. Results are expressed in terms of IC50 values (i.e. concentration of compound required to kill 50% of cells), which were determined manually in Microsoft Excel from plots of concentration versus percentage cell survival, and all experiments were performed in triplicate.

[2] = system: HT-29 colon adenocarcinoma; test: MTT in vitro cytotoxicity, HT-29; format: cell-based; conditions: Homo sapiens, HT-29, 240 h
Procedure: as §1, §2, §3, §4

[3] = system: MCF-7 breast adenocarcinoma; test: MTT in vitro cytotoxicity, MCF-7; format: cell-based, human; conditions: Homo sapiens, MCF7, 240 h
Procedure: as §1, §2, §3, §4

[4] = system: A2780 [ovarian]; test: Combination with cisplatin, A2780; format: cell-based
[5] = system: A2780/cis [cisplatin ovarian resistant line]; test: Combination with cisplatin, A2780/cis; format: cell-based
[6] = system: M 14 [melanoma]; test: Combination with cisplatin, M14; format: cell-based
[7] = system: MCF7 [Breast]; test: Combination with cisplatin, MCF-7; format: cell-based, human
[8] = system: human mitochondria isolated from HEK293 cells; test: ROS production in isolated mitochondria (DCFDA); format: biochemical
Procedure: The ability of test compounds to impact ROS production in isolated mitochondria after 120 mins exposure was assessed.
Mitochondria were isolated from harvested human embryonic kidney (HEK293) cells (20×10^6) using a commercial kit (Thermo Scientific) before re-suspension in PBS to a final volume of 800 μL. […] Independent experiments (each assessing the impact of all four compounds along with a positive [AAPH; 5.0 mM] and vehicle control) were repeated three times.

[9] = Redox potential study, square wave voltammetry; format: physicochemical; conditions: 0.1 mol dm-3 LiNTf2, 20° C., first scan
Procedure: BioAnalytical Systems CV50W potentiostat (from BAS Inc., USA)
Square wave voltammetry (4 mV step, 25 mV pulse, 10 Hz SW frequency)
3 mm diameter glassy carbon working electrode (from BAS)
3 mm diameter glassy carbon counter electrode (from BAS)
Saturated calomel reference electrode (SCE, from Sycopel Scientific Ltd., UK)
0.1 mol dm-3 lithium bis(trifluoromethanesulphonyl)imide ((LiNTf2)CAS 90076-65-6, from 3M)
Voltammograms were recorded from 0.5 V to −1.2 V in deoxygenated solutions of the Compounds.

[10] = compound 1 μM + cisplatin 10 μM
[11] = compound 3 μM + cisplatin 10 μM
[12] = compound 10 μM + cisplatin 1 μM
[13] = compound 10 μM + cisplatin 3 μM
[14] = compound 10 μM + cisplatin 10 μM

SMILES: O=S(=O)([O-])C(F)(F)F.O=S(=O)([O-])C(F)(F)F.c1cc[n+]2c(c1)-c1cccc[n+]1CC2 [Compound A, 6,7-dihydrodipyrido[1,2-a:2′,1′-c]pyrazine-5,8-diium bistrifluoromethanesulfonate]
- IC50 ([1]; read-out: IC50 Mean): 5.4 µM
- IC50 ([1]; read-out: IC50 Run 1): 5.2 µM
- IC50 ([1]; read-out: IC50 Run 2): 5.5 µM
- IC50 ([1]; read-out: IC50 Run 3): 5.4 µM
- IC50 ([2]; read-out: IC50 Mean): 1.5 µM
- IC50 ([2]; read-out: IC50 Run 1): 1.8 µM
- IC50 ([2]; read-out: IC50 Run 2): 0.9 µM
- IC50 ([2]; read-out: IC50 Run 3): 1.7 µM
- IC50 ([3]; read-out: IC50 Mean): 5 µM
- IC50 ([3]; read-out: IC50 Run 1): 2.7 µM
- IC50 ([3]; read-out: IC50 Run 2): 5.4 µM
- IC50 ([3]; read-out: IC50 Run 3): 6.8 µM
- % cell survival ([4]; compound 1 μM + cisplatin 1 μM): 58%
- % cell survival ([4]; compound 1 μM + cisplatin 3 μM): 24.5%
- % cell survival [4, 10]: 5.2%
- % cell survival ([4]; compound 1 μM, cisplatin 0 μM): 90.5%
- % cell survival ([4]; compound 3 μM + cisplatin 1 μM): 54.4%
- % cell survival ([4]; compound 3 μM + cisplatin 3 μM): 22.3%
- % cell survival [4, 11]: 5.3%
- % cell survival ([4]; compound 3 μM, cisplatin 0 μM): 86.3%
- % cell survival [4, 12]: 40.6%
- % cell survival [4, 13]: 19%
- % cell survival [4, 14]: 5.2%
- % cell survival ([4]; compound 10 μM, cisplatin 0 μM): 66%
- % cell survival [5, 10]: 51.4%
- % cell survival ([5]; compound 1 μM + cisplatin 30 μM): 10%
- % cell survival ([5]; compound 1 μM + cisplatin 100 μM): −1.6%
- % cell survival ([5]; compound 1 μM, cisplatin 0 μM): 77.8%
- % cell survival [5, 11]: 31.9%
- % cell survival ([5]; compound 3 μM + cisplatin 30 μM): 10.2%
- % cell survival ([5]; compound 3 μM + cisplatin 100 μM): 1.9%
- % cell survival ([5]; compound 3 μM, cisplatin 0 μM): 48.7%
- % cell survival [5, 14]: 16.6%
- % cell survival ([5]; compound 10 μM + cisplatin 30 μM): 6%
- % cell survival ([5]; compound 10 μM + cisplatin 100 μM): 1.8%
- % cell survival ([5]; compound 10 μM, cisplatin 0 μM): 29.4%
- % cell survival ([6]; compound 1 μM + cisplatin 1 μM): 83.1%
- % cell survival ([6]; compound 1 μM + cisplatin 3 μM): 71.3%
- % cell survival [6, 10]: 57.9%
- % cell survival ([6]; compound 1 μM, cisplatin 0 μM): 87%
- % cell survival ([6]; compound 3 μM + cisplatin 1 μM): 75.8%
- % cell survival ([6]; compound 3 μM + cisplatin 3 μM): 68%
- % cell survival [6, 11]: 55.4%
- % cell survival ([6]; compound 3 μM, cisplatin 0 μM): 80%
- % cell survival [6, 12]: 49%
- % cell survival [6, 13]: 44.4%
- % cell survival [6, 14]: 36.4%
- % cell survival ([6]; compound 10 μM, cisplatin 0 μM): 56.5%
- % cell survival ([7]; compound 1 μM + cisplatin 0.1 μM): 96.4%
- % cell survival ([7]; compound 1 μM + cisplatin 0.3 μM): 69.4%
- % cell survival ([7]; compound 1 μM + cisplatin 1 μM): 62%
- % cell survival ([7]; compound 1 μM, cisplatin 0 μM): 109%
- % cell survival ([7]; compound 3 μM + cisplatin 0.1 μM): 80.9%
- % cell survival ([7]; compound 3 μM + cisplatin 0.3 μM): 64.8%
- % cell survival ([7]; compound 3 μM + cisplatin 1 μM): 66.2%
- % cell survival ([7]; compound 3 μM, cisplatin 0 μM): 95.1%
- % cell survival ([7]; compound 10 μM + cisplatin 0.1 μM): 52.8%
- % cell survival ([7]; compound 10 μM + cisplatin 0.3 μM): 39.6%
- % cell survival [7, 12]: 32.6%
- % cell survival ([7]; compound 10 μM, cisplatin 0 μM): 52.6%
- ROS production relative to vehicle treatment [8]: barely above vehicle levels
- rank order of efficacy (ROS production) [8]: F>G>B>A
- Reduction potential 1 [9]: −0.444 V vs. SCE
- Reduction potential 2 [9]: −0.944 V vs. SCE
